Results on 13 compounds are retold here after PubChem BioAssay (NCI).

Each structure is given as a SMILES string.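 These data come from cells grown in 96-well plates and exposed to compound for 48 hours at five concentrations. At the GI50, growth is halved. TGI denotes the concentration required for complete inhibition of growth.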

Test systems include OVCAR-8 ovarian; IGROV1 ovarian; SNB-75 CNS; COLO 205 colon; OVCAR-3 ovarian; NCI-H522 lung; 786-0 renal; T-47D breast; HS 578T breast; DU-145 prostate; BT-549 breast.
Holding throughout (assay): NCI tumour cell line growth inhibition, 48 h

On to `COc1cc(O)c2c(c1)C(=O)c1cc(C)cc(O)c1C2=O`, for which the TGI with OVCAR-8 ovarian, in the assay on IGROV1 ovarian, in the assay with SNB-75 CNS, in the assay on COLO 205 colon, with OVCAR-3 ovarian and with NCI-H522 lung was above 100 µM throughout.
For `Cn1c(Sc2ccc(-c3cccnc3)n2C)ccc1-c1cccnc1`, the TGI was 41.2 µM in the assay with OVCAR-8 ovarian; 31.9 µM in the assay on IGROV1 ovarian; 46.9 µM with SNB-75 CNS; 38 µM with COLO 205 colon; 43.5 µM in the assay with 786-0 renal; 44.2 µM in the assay with T-47D breast. The TGI in the assay on OVCAR-3 ovarian was 27.3 µM; in the assay with HS 578T breast, 9.76 µM; with NCI-H522 lung, 23.9 µM; in the assay with DU-145 prostate, 33.5 µM; in the assay with BT-549 breast, 49.8 µM.
Take `Cc1cc(=O)oc2c1cc(OCC(=O)OCCN1CCCCC1)c1occ(C)c12`: the TGI in the assay with OVCAR-8 ovarian, in the assay on SNB-75 CNS, with 786-0 renal and with OVCAR-3 ovarian was above 100 µM throughout.
Turning to `NC(=O)Nc1cc(O)ccc1N=Nc1ccc(S(=O)(=O)Nc2ccccn2)cc1`, the TGI in the assay on OVCAR-8 ovarian, in the assay on IGROV1 ovarian, with SNB-75 CNS, in the assay on COLO 205 colon, in the assay with OVCAR-3 ovarian and with NCI-H522 lung was above 100 µM throughout.
`CC(CO)(CO)Nc1ncnc2ccccc12`: the TGI in the assay with OVCAR-8 ovarian, with IGROV1 ovarian, in the assay with SNB-75 CNS, with 786-0 renal, with T-47D breast and in the assay on OVCAR-3 ovarian was above 100 µM throughout. Moreover, the TGI in the assay on HS 578T breast, in the assay on NCI-H522 lung, with DU-145 prostate and in the assay with BT-549 breast was above 100 µM in each case.
With `CCOC(=O)NC`, the TGI with IGROV1 ovarian, in the assay on SNB-75 CNS, in the assay on COLO 205 colon, in the assay with 786-0 renal, in the assay on T-47D breast and with OVCAR-3 ovarian was above 100 µM throughout. The TGI in the assay with HS 578T breast, in the assay with DU-145 prostate and in the assay on BT-549 breast was above 100 µM in each case.
For the compound `Nc1nnc(N)n1NC(=O)C(=O)Nc1ccc([N+](=O)[O-])cc1`, the TGI in the assay with OVCAR-8 ovarian, in the assay on IGROV1 ovarian, in the assay with SNB-75 CNS, with COLO 205 colon and with NCI-H522 lung was above 100 µM each time.
Regarding `c1ccc2sc(SCN(C3CCCCC3)C3CCCCC3)nc2c1`, the TGI is above 100 µM in the assay with OVCAR-8 ovarian; above 100 µM in the assay on IGROV1 ovarian; 49.5 µM with T-47D breast; above 100 µM with OVCAR-3 ovarian; above 100 µM in the assay with HS 578T breast; above 100 µM with NCI-H522 lung. For the same compound, the TGI in the assay with DU-145 prostate and with BT-549 breast was above 100 µM throughout.
Turning to `O=C(O)C1=NNC(C(=O)O)=NN1`, the TGI with OVCAR-8 ovarian, in the assay on IGROV1 ovarian, with SNB-75 CNS, with COLO 205 colon, in the assay with 786-0 renal and with OVCAR-3 ovarian was above 100 µM in each case. The same compound showed a TGI in the assay with NCI-H522 lung above 100 µM.
In the case of `CCCCCCCCCCCCCCCCOCC(COP(=O)([O-])OCC[n+]1ccc(N(C)C)cc1)OCC` (stereo not drawn), the TGI turned out to be 38.2 µM in the assay with OVCAR-8 ovarian; 33.8 µM with IGROV1 ovarian; 18.8 µM in the assay on SNB-75 CNS; 26.5 µM in the assay with COLO 205 colon; 34.2 µM in the assay on 786-0 renal; 37.3 µM with T-47D breast. For the same compound, the TGI is 24.8 µM in the assay with OVCAR-3 ovarian; 31.8 µM in the assay on HS 578T breast; 29.2 µM in the assay with NCI-H522 lung; 30.1 µM in the assay on DU-145 prostate; 20.2 µM in the assay on BT-549 breast.
Take `COc1c(Cl)cc(S(=O)O)cc1Cl`: the TGI in the assay with SNB-75 CNS, in the assay with OVCAR-3 ovarian and with NCI-H522 lung was above 100 µM each time.
With `Fc1ccc(-c2nnc3sc(COc4ccccc4Cl)nn23)cc1Cl`, the GI50 in the assay on OVCAR-8 ovarian was 37.8 µM; in the assay with IGROV1 ovarian, 17.7 µM; in the assay with SNB-75 CNS, 47.3 µM; with COLO 205 colon, 43.7 µM; with T-47D breast, 32.8 µM; with HS 578T breast it was 35.2 µM. The values for the GI50 in the assay with NCI-H522 lung, in the assay on DU-145 prostate and with BT-549 breast were 18 µM, 29.8 µM and 22.9 µM, respectively. For the same compound, the TGI is above 100 µM with OVCAR-8 ovarian; 62.8 µM in the assay on IGROV1 ovarian; above 100 µM with SNB-75 CNS; above 100 µM with COLO 205 colon; above 100 µM with T-47D breast; 91.6 µM with HS 578T breast. The TGI was 36.3 µM in the assay with NCI-H522 lung, above 100 µM in the assay with DU-145 prostate and 64.4 µM with BT-549 breast.
With `O=C1c2ccccc2C(=O)c2c1ccc(C(=O)O)c2-c1ccc2ccccc2c1`, the TGI in the assay with OVCAR-8 ovarian is above 100 µM; with IGROV1 ovarian it was 68.3 µM; in the assay with COLO 205 colon it was 30.1 µM; in the assay with 786-0 renal it was above 100 µM; in the assay on T-47D breast it was 18.1 µM; with OVCAR-3 ovarian it was 65.3 µM. In addition, the TGI with HS 578T breast amounted to 80.7 µM; with NCI-H522 lung, 59.3 µM; in the assay with DU-145 prostate, 46.6 µM; in the assay on BT-549 breast, 68.3 µM.
